Patent US9321764B2, “Dihydro-pyrrolopyridinone inhibitors” (AbbVie Inc., priority 2013, dated 2016)

Tests used:
BRD4 (BDI_K57-E168) = target: T1, BRD4 (BDI_K57-E168) (Homo sapiens, UniProt O60885); experiment: TR-FRET bromodomain binding assay, first bromodomain of BRD4; conditions: His-tagged BD1, 100 nM Alexa647 probe; TR-FRET protocol A-E given per row
T1 construct: BD1: amino acids K57-E168; made in house
Method in brief: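 Ki values come from IC50s (4-parameter logistic) corrected for probe Kd and concentration, normalised to no-compound and 1 μM unlabelled probe controls. Probe displacement by TR-FRET used 8 nM BD1 (K57-E168), 100 nM Alexa647 probe, 1 nM Eu-anti-His, 20 mM phosphate pH 6.0, 2% DMSO, 1 h, room temperature.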

BRD4 (BDII_E352-M457) = target: T2, BRD4 (BDII_E352-M457) (Homo sapiens, UniProt O60885); experiment: TR-FRET bromodomain binding assay, second bromodomain of BRD4; conditions: His-tagged BD2, 30 nM Alexa647 probe; TR-FRET protocol A-E given per row
T2 construct: proliferation; Protocol; made in house
Method in brief: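 His-tagged BRD4 BD2 ([…]) competed against an Alexa647-labelled BET-inhibitor probe in TR-FRET. Buffer was 20 mM sodium phosphate pH 6.0, 50 mM NaCl, 1 mM EDTA, 0.01% Triton X-100, 1 mM DTT, with method D DMSO series of 2.5 mM–800 nM (stock range). IC50 from 4-parameter fit, Ki from probe Kd and concentration.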

For `Cc1ccc(CC(=O)Nc2ccc(Oc3ccc(F)cc3F)c(-c3cn(C)c4c(=O)[nH]ccc34)c2)cn1` [Example 161, N-[4-(2,4-difluorophenoxy)-3-(1-methyl-7-oxo-6,7-dihydro-1H-pyrrolo[2,3-c]pyridin-3-yl)phenyl]-2-(6-methylpyridin-3-yl)acetamide], the Ki (BRD4 (BDI_K57-E168)) was > 238 nM and the Ki (BRD4 (BDII_E352-M457)) was 79.1 nM.
`Cn1cc(-c2cc(S(C)(=O)=O)ccc2OCCCC2CCCC2)c2cc[nH]c(=O)c21` [Example 66, 3-[2-(3-cyclopentylpropoxy)-5-(methylsulfonyl)phenyl]-1-methyl-1,6-dihydro-7H-pyrrolo[2,3-c]pyridin-7-one] showed a Ki (BRD4 (BDI_K57-E168)) of 219 nM and a Ki (BRD4 (BDII_E352-M457)) of 741 nM.
`COc1ccc(S(C)(=O)=O)cc1-c1cn(C)c2c(=O)[nH]ccc12` [Example 21, 3-[2-methoxy-5-(methylsulfonyl)phenyl]-1-methyl-1,6-dihydro-7H-pyrrolo[2,3-c]pyridin-7-one] gave a Ki (BRD4 (BDI_K57-E168)) of 438 nM and a Ki (BRD4 (BDII_E352-M457)) of 721 nM.
`Cc1ncc(CC(=O)Nc2ccc(Oc3ccc(F)cc3F)c(-c3cn(C)c4c(=O)[nH]ccc34)c2)s1` [Example 163, N-[4-(2,4-difluorophenoxy)-3-(1-methyl-7-oxo-6,7-dihydro-1H-pyrrolo[2,3-c]pyridin-3-yl)phenyl]-2-(2-methyl-1,3-thiazol-5-yl)acetamide] showed a Ki (BRD4 (BDI_K57-E168)) of 24 nM and a Ki (BRD4 (BDII_E352-M457)) of 81.3 nM.
For `CCS(=O)(=O)Nc1ccc(Oc2ccc(F)cc2F)c(-c2cn(C)c3c(=O)[nH]c(C(=O)N4CCOCC4)cc23)c1` [Example 191, N-{4-(2,4-difluorophenoxy)-3-[1-methyl-5-(morpholin-4-ylcarbonyl)-7-oxo-6,7-dihydro-1H-pyrrolo[2,3-c]pyridin-3-yl]phenyl}ethanesulfonamide], the Ki (BRD4 (BDI_K57-E168)) was 7.63 nM and the Ki (BRD4 (BDII_E352-M457)) was 54.6 nM.
With `Cn1cc(-c2cc(CNS(=O)(=O)c3cc(Cl)sc3Cl)ccc2Oc2ccc(F)cc2F)c2cc[nH]c(=O)c21` [Example 138, 2,5-dichloro-N-[4-(2,4-difluorophenoxy)-3-(1-methyl-7-oxo-6,7-dihydro-1H-pyrrolo[2,3-c]pyridin-3-yl)benzyl]thiophene-3-sulfonamide] the Ki (BRD4 (BDI_K57-E168)) was 1150 nM and the Ki (BRD4 (BDII_E352-M457)) was > 4000 nM.
Work on `Cn1cc(-c2cc(S(C)(=O)=O)ccc2Oc2ccccc2)c2cc[nH]c(=O)c21` [Example 18, 1-methyl-3-[5-(methylsulfonyl)-2-phenoxyphenyl]-1,6-dihydro-7H-pyrrolo[2,3-c]pyridin-7-one] yielded a Ki (BRD4 (BDI_K57-E168)) of 12 nM and a Ki (BRD4 (BDII_E352-M457)) of 21 nM.
With `COc1ccc(Oc2cccc(CNc3ccc(Oc4ccc(F)cc4F)c(-c4cn(C)c5c(=O)[nH]ccc45)c3)c2)cc1` [Example 168, 3-[2-(2,4-difluorophenoxy)-5-{[3-(4-methoxyphenoxy)benzyl]amino}phenyl]-1-methyl-1,6-dihydro-7H-pyrrolo[2,3-c]pyridin-7-one] the Ki (BRD4 (BDI_K57-E168)) was 386 nM and the Ki (BRD4 (BDII_E352-M457)) was 1200 nM.
With `Cn1cc(-c2c(OCC3CC3)ccc3cc[nH]c23)c2cc[nH]c(=O)c21` [Example 98, 3-[6-(cyclopropylmethoxy)-1H-indol-7-yl]-1-methyl-1,6-dihydro-7H-pyrrolo[2,3-c]pyridin-7-one] the Ki (BRD4 (BDI_K57-E168)) was 992 nM and the Ki (BRD4 (BDII_E352-M457)) was 2030 nM.
Work on `CC(C)CCC(=O)Nc1ccc(Oc2ccc(F)cc2F)c(-c2cn(C)c3c(=O)[nH]ccc23)c1` [Example 147, N-[4-(2,4-difluorophenoxy)-3-(1-methyl-7-oxo-6,7-dihydro-1H-pyrrolo[2,3-c]pyridin-3-yl)phenyl]-4-methylpentanamide] yielded a Ki (BRD4 (BDI_K57-E168)) of 59.4 nM and a Ki (BRD4 (BDII_E352-M457)) of 134 nM.
In the case of `CCS(=O)(=O)c1ccc(Oc2cccc(Cl)c2Cl)c(-c2cn(C)c3c(=O)[nH]ccc23)c1` [Example 84, 3-[2-(2,3-dichlorophenoxy)-5-(ethylsulfonyl)phenyl]-1-methyl-1,6-dihydro-7H-pyrrolo[2,3-c]pyridin-7-one], the Ki (BRD4 (BDI_K57-E168)) is reported as 55 nM and the Ki (BRD4 (BDII_E352-M457)) is reported as 25 nM.
`CNC(=O)c1cc2c(-c3cn(C)c4c(=O)[nH]ccc34)c(OCC3CC3)ccc2[nH]1` [Example 107, 5-(cyclopropylmethoxy)-N-methyl-4-(1-methyl-7-oxo-6,7-dihydro-1H-pyrrolo[2,3-c]pyridin-3-yl)-1H-indole-2-carboxamide] was tested, and the Ki (BRD4 (BDI_K57-E168)) was > 2380 nM and the Ki (BRD4 (BDII_E352-M457)) was 407 nM.
